Data set [1] concerns the target TYK2 (Homo sapiens, UniProt P29597). Kind of data set: ADP-Glo Tyk2 kinase assay. Type of data set: biochemical. Particulars: read-out: IC50, In vitro enzyme TYK2. As for the experimental part: 10 mM of Compound 1 was diluted in DMSO to prepare samples at five concentrations (5,000 nM, 500 nM, 50 nM, 5 nM, and 0.5 nM). 10 mM of ATP was diluted at 1/40 in 1× kinase buffer to make a preparation. 1 mg/mL of Poly (Glu4, Tyr1) peptide was used as a stock solution. 100 ng/μL of Tyk2 enzyme was diluted at ½ in 1× kinase buffer to make a preparation. 1 μL of ATP, 1 μL of Poly (Glu4, Tyr1) peptide, and 1 μL of Compound 1 prepared as above were mixed, after which 2 μL of Tyk2 enzyme was finally added and reacted at 30° C. for 40 minutes. At this time, a tube without […] enzyme was prepared for a blank and a tube without Compound 1 was prepared as a positive control group together (a final concentration of samples was 1,000 nM, 100 nM, 10 nM, 1 nM, and 0.1 nM).
Then, 5 μL of ADP-glo was added to each tube and reacted at 30° C. for 40 minutes, after which 10 μL of kinase detection reagent was added thereto and reacted at room temperature for 15 minutes. After 18 μL of the reactant was transferred to a 384 well plate, luminescence was measured using a plate reader.

Data set [2] relates to DSS-induced animal model (C57BL/6J mice). Kind of data set: DSS-induced colitis model. It counts as in vivo. The note with it: oral. Here is the method: To induce colitis in C57BL/6J mice, drinking water was treated with 3% dextran sodium sulphate (DSS) and provided each morning for eight days, and a negative control group was provided with 0% DSS.
After mice were grouped into several groups (day O), the mice were orally dosed with 0.5% methylcellulose and Compound 1 obtained according to Preparation Example 1 as a test material at 9 a.m. and 5 p.m. every day from day 1 to day 7. Test animals were autopsied on day 8.
Disease activity index (DAI) was calculated as body weight, fecal […], and fecal blood score to represent the severity of the disease. Body weight and food intake were monitored and evaluated at the start of the study and every 24 hours, and fecal samples were collected on days 0, 3, 5, and 7 and analyzed according to Table 6 below.
After measuring the weight and length of the colon obtained by autopsy, the weight-to-length ratio was calculated.
On day 8, blood was drawn from the heart into a centrifuge tube containing EDTA-K2 anticoagulant. After centrifugation (7000 rpm, 10 minutes, 4° C.), plasma was separated, and KC and MIP-2 were measured by Meso Scale Discovery Kit.
The mRNA was extracted from a portion of large intestine tissues (same location for each animal) to analyze an expression level of MX2 and TNF-alpha in the tissues through qPCR.
The large intestine part fixed with 10% formalin was cut with paraffin and stained with hematoxylin-eosin. The criteria for histological changes in the colon followed Table 7 below.

Data set [3] deals with JAK1, Tyk2. Kind of data set: In vitro cell assay, JAK1, Tyk2 (U2OS cells, IFN-alphaB2). It counts as cell-based. The note with it: Homo sapiens, read-out: IC50, Cell Biology JAK1, Tyk2. Here is the method:
Furthermore, there is a literature in which U20S cells are associated with JAK1/TYK2 signaling activity and phosphorylation of STAT1 by IFN-alphaB2 and IFN-γ. Accordingly, U2OS cells were prepared for the evaluation of JAK1 and TYK2 as a cell line which strongly expresses STAT1 signals.
The test material was dissolved in DMSO, prepared at 10 mM, divided by 20 μL each, and stored at −20° C.
• EPO: 2000 U/0.5 mL of stock was divided by 50 μL each and stored under refrigeration. • IL-2: 200 μg/ml of stock was prepared, divided by 5 μL each, and stored, and then treated at 2 ng/ml. (IL-2 1 μg/ml=13000 U/ml) • IFN-alphaB2: […] of stock was diluted and used, and then treated to reach 30000 U/ml.
• UT-7/EPO cell assay: MEM-alpha (Gibco, cat #12561-056) was prepared to contain 5% FBS and 1% P/S before use. • NK-92 cell assay: A preparation was made to contain HBSS, 1% FBS and 1% P/S before use. • U2OS cell assay: A preparation was made to contain HBSS, 1% FBS and 1% P/S before use.
The cultured cells were centrifuged (1,000 rpm, 5 minutes) and washed with PBS. The size of cell lines and appropriate reaction concentration thereof were set and the cell lines were seeded in a 96-well plate at 1×10^5 to 10^6 cells/well (50 μL/well). The test material was prepared 4× of the concentration to be treated, and prepared at five to six concentrations by serial dilution of ⅕ each. […]

Data set [4] concerns DNCB-induced animal model (NC/Nga mice). Kind of data set: DNCB-induced atopic dermatitis model (PO). It counts as in vivo. Particulars: twice a day for 28 days, FIGS. 17 to 19. As for the experimental part: A DNCB-induced animal model was prepared in substantially the same manner as the DNCB model (topical) in Experimental Example 6, except that the phosphate compound was orally administered, and the phosphate compound obtained according to Example 3 was administered. The phosphate compound was orally administered a total of 56 times twice a day for 28 days, and an administration interval was eight hours. The dosage (10 mL/kg) was calculated and determined based on the body weight measured on the day of administration, and intragastrically administered through the mouth of mice using a 1 ml syringe and a feeding needle. The control group was dosed with 0.5% methylcellulose (0.5% MC).

Data set [5] is described as follows: Measurement of water solubility. Type of data set: physicochemical. Particulars: saturated solution shaken at room temperature for 24 hours. Here is the method: A liquid phase was taken out of the solution and filtered using a 0.22 μm PVDF filter. The filtered liquid phase was diluted 10-fold for LC analysis.
LC analysis was performed by the following method.

Chain of TYK2 (P29597 whole entry, species assumed): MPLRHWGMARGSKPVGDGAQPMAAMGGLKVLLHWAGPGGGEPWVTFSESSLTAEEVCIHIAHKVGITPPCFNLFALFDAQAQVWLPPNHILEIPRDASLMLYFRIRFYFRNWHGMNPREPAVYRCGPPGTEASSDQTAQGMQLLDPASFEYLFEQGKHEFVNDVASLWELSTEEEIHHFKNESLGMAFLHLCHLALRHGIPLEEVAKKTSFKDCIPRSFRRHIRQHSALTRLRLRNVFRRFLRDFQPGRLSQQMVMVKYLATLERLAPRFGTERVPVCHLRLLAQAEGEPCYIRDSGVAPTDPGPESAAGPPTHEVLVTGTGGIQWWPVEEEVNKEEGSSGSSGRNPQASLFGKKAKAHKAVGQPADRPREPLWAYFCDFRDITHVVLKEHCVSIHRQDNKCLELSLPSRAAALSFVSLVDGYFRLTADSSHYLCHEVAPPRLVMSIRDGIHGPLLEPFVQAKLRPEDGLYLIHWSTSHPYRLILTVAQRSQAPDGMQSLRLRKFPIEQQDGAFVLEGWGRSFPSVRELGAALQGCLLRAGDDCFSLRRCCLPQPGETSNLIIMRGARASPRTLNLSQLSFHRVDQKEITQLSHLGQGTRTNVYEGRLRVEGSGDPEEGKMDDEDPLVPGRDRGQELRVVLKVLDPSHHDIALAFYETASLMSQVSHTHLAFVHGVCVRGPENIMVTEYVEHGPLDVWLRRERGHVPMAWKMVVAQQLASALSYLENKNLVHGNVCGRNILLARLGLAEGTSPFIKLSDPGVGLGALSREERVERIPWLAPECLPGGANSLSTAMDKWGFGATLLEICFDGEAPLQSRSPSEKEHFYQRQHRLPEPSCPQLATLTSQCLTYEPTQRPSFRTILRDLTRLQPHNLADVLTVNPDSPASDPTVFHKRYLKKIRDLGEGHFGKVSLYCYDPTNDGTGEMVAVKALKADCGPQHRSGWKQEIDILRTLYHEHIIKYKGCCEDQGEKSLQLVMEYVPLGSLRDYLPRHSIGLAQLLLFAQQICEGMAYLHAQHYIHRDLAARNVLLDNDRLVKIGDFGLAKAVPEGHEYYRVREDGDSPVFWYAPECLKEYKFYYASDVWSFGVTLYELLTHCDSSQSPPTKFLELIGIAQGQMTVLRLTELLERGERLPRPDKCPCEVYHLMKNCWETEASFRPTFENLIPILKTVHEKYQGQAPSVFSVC

As for `C[C@@H]1CN(C(=O)CC#N)CC=C1c1cc(NC(=O)C2CC2)nc2[nH]ccc12` [Compound 1, (S)—N-(4-(1-(2-cyanoacetyl)-3-methyl-1,2,3,6-tetrahydropyridin-4-yl)-1H-pyrrolo[2,3-b]pyridin-6-yl)cyclopropanecarboxamide], the concentration for half-maximal inhibition (IC50) in data set [1] was 0.022 µM. Moreover, the “Disease activity index (DAI)” value in data set [2] (90 mg/kg, FIG. 21) is reported as “reduced to half that of the control group (vehicle)”. Besides, the “Weight-to-length ratio of colon” value in data set [2] (FIG. 22) was “lower value compared to the control group (vehicle)”. Besides, the Histopathological score result in data set [2] (FIG. 24) is recorded as “lowered”. In data set [2] (day 8, FIG. 23), the “KC concentration in plasma” value is given as “decreased” and the “MIP-2 concentration in plasma” value is reported as “decreased”. In data set [2] (qPCR, FIG. 23), the “Expression level of MX2 in the colon” value is given as “decreased” and the “Expression level of TNF-alpha in the colon” value was “decreased”. Moreover, the “Degree of increase in disease activity index (DAI)” value in data set [2] (twice daily day 1 to day 7, FIG. 21) is on record as “lower than that of the control group (vehicle)”. The concentration for half-maximal inhibition (IC50) in data set [3] was 0.027 µM.

In the case of `C[C@@H]1CN(C(=O)CC#N)CC=C1c1cc(NC(=O)C2CC2)nc2[nH]ccc12` [Example 3, (S)—N-(4-(1-(2-cyanoacetyl)-3-methyl-1,2,3,6-tetrahydropyridin-4-yl)-1H-pyrrolo[2,3-b]pyridin-6-yl)cyclopropanecarboxamide], the “Symptoms of atopic dermatitis” value in data set [4] is recorded as “ameliorates symptoms of atopic dermatitis”. Moreover, the Water solubility in data set [5] turned out to be 3.9 mg/mL.

The values are drawn from US20240300943A1, “NOVEL SALTS OF HETEROCYCLIC COMPOUND AS PROTEIN KINASE INHIBITOR AND USES THEREOF” (HK INNO.N CORPORATION, priority 2021, published 2024).
